Measurements from BigSolDB 2.1.

Cc1c([N+](=O)[O-])c(C)c([N+](=O)[O-])c(C(C)(C)C)c1[N+](=O)[O-]
solubility (mole fraction)
Details | in DMAc | in THF | in cyclohexane | in ethanol | in ethyl acetate | in isopropanol | in methanol | in n-butanol | in n-heptane | in n-hexane
278.15 K | 0.0918 | 0.0786 | 0.00467 | 0.00168 | 0.0953 | 0.00128 | 0.00185 | 0.00245 | 0.00262 | 0.00225
283.15 K | 0.112 | 0.0889 | 0.00588 | 0.00207 | 0.115 | 0.00165 | 0.00234 | 0.00308 | 0.00321 | 0.00284
288.15 K | 0.134 | 0.1 | 0.00739 | 0.00254 | 0.136 | 0.00211 | 0.00295 | 0.00374 | 0.00402 | 0.00359
293.15 K | 0.156 | 0.112 | 0.00925 | 0.00311 | 0.158 | 0.00269 | 0.00369 | 0.0045 | 0.00496 | 0.00437
298.15 K | 0.179 | 0.126 | 0.0116 | 0.00378 | 0.182 | 0.00343 | 0.00459 | 0.00553 | 0.00609 | 0.00557
303.15 K | 0.205 | 0.139 | 0.0145 | 0.00458 | 0.207 | 0.00437 | 0.00569 | 0.00666 | 0.00752 | 0.00685
308.15 K | 0.232 | 0.156 | 0.0182 | 0.00552 | 0.233 | 0.00557 | 0.00704 | 0.00806 | 0.00931 | 0.00842
313.15 K | 0.263 | 0.173 | 0.0229 | 0.00663 | 0.262 | 0.00713 | 0.00868 | 0.00974 | 0.0114 | 0.0104
